{"source": "paper PMC2939063", "about": "“In Vitro and In Vivo Studies of the Trypanocidal Properties of WRR-483 against Trypanosoma cruzi” (PLoS Neglected Tropical Diseases, 2010)", "key": {"[1]": {"system": "EhCP1", "settings": "cited from earlier work"}, "[2]": {"target": "T1, Papain (Carica papaya, UniProt P00784)", "T1 construct": "Reaction Biology Corp (screening service)", "T1 sequence (P00784 134-345)": "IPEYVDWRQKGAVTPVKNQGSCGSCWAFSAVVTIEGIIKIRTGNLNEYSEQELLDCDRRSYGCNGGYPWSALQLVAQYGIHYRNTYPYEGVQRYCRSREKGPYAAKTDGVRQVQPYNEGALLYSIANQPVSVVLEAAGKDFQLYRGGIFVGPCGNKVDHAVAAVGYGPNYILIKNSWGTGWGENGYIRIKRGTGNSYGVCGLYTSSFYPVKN", "experiment": "Protease inhibition profiling (Reaction Biology Corp): Papain", "type": "biochemical"}, "[3]": {"system": "T. cruzi CA-I/72 infected C3H mice", "experiment": "Murine model of acute Chagas' disease", "type": "in vivo, mouse", "set-up": "key to Histopathology, Heart / Histopathology, Liver / Histopathology, Spleen / Histopathology, Colon: I/I: Inflammation and infiltration; +10A: Numerous nests of T. cruzi amastigotes; +A: 1-3 nests of T. cruzi amastigotes; Negative", "description": "Three to four week old female C3H mice weighing ca. 20 g were used. The animals were separated into five lots of 5 mice per cage and infected with 10^6 tissue-culture derived trypomastigotes of the myotropic T. cruzi CA-I/72 cloned stock. The mice were treated with 100 mg compound/kg of body weight in 100 µL of solution (30–40% DMSO: 60–70% sterile distilled water) intraperitoneally twice a day. Treatment was initiated 12 h post infection and continued until cure, death of the animals, or for a total of 20 days. […] Parasitemias was determined at the end of the experiment when animals were euthanized. Tissues processed for histopathology include skeletal muscle, heart, liver, spleen, and colon. Blood (5–50 µL) was used for hemocultures. […] Compounds were considered toxic if life expectancy is lower than untreated controls (negative values). If necessary, PCR of blood and tissues was performed to confirm effectiveness of treatment and/or cure of treated animals. Results were expressed as survival (days) of treated animals."}, "[4]": {"settings": "individual infected mice, 100 mg/kg ip"}, "[5]": {"settings": "individual infected mice, 100 mg/kg ip, 100 mg/kg"}}, "note": "Entries after “also recorded” stand apart in the source; their conditions may differ."}
{"smiles": "CN1CCN(C(=O)N[C@@H](CCCNC(=N)N)C(=O)N[C@H](/C=C/S(=O)(=O)c2ccccc2)CCc2ccccc2)CC1", "note": "[WRR-483]", "values": [{"measurement": "inhibition of EhCP1", "setting": "[1]", "result": "potent inhibitor"}, {"measurement": "IC50", "setting": "[2]", "result": "0.373 ± 0.044", "unit": "µM"}, {"measurement": "T. cruzi infected mouse survival", "setting": "[3]; 100 mg inhibitor/kg body weight in two daily doses, intraperitoneally, untreated control 21 days", "result": 110, "unit": "days"}, {"measurement": "survival of the acute infection", "setting": "[3]; 10^6 trypomastigotes CA-I/72, untreated controls died within 21–60 days", "result": "survived the acute infection"}, {"measurement": "Histopathology, Colon", "setting": "[3]; [4]", "result": "N"}, {"measurement": "Histopathology, Liver", "setting": "[3]; [4]", "result": "N"}, {"measurement": "Histopathology, Spleen", "setting": "[3]; [4]", "result": "N"}, {"measurement": "Histopathology, Heart", "setting": "[3]; [5]", "result": "N and Mild i/i"}, {"measurement": "Histopathology, Sk. muscle", "setting": "[3]; [5]", "result": "Moderate i/i; also recorded: +AIntense i/i"}]}
